Drawing on patent publication US12410179B2, “Modulators of TNF alpha activity and uses thereof” (RayThera, Inc., priority 2023, dated 2025), this text covers IC50 and Emax for 44 molecules.

Molecules are shown by their SMILES. Where two headings read alike, the source gives them in different places.

This assay concerns the target TNFα (Homo sapiens, UniProt P01375). Nature of the assay: HEK-Blue hTNFα reporter assay. More on the design: purchased R&D biosystem (R&D Systems) 210-TA-020/CF. The class given is cell-based. The note with it: HEK-Blue hTNFα reporter cells; for Emax: read-out: TNFα reporter, Emax. From the text: Stimulation of HEK293 cells by TNFα leads to activation of the NF-κB pathway. The potency of compounds was examined in HEK-Blue™ hTNFα reporter cells (Invivogen, Cat #hkb-tnfdmyd). HEK-Blue™ TNFα cells were generated by stable transfection of HEK293 cell line with a SEAP reporter gene under the control of the […] minimal promoter fused to NF-κB binding sites. Stimulation of HEK-Blue™ TNFα cells with TNFα triggers the activation of the NF-κB-inducible promoter and the production of SEAP. Levels of SEAP in the supernatant can be easily determined using QUANTI-Blue™ Solution (Invivogen, cat #rep-qbs) by reading the OD at 620-655 nm.
HEK-Blue™ TNFα cells were cultured in DMEM supplemented with 10% FBS, 100p/mL penicillin, 100 μg/mL streptomycin, 100 μg/mL normocin, 1 μg/mL puromycin, and 100 μg/mL zeocin. The culture was maintained in culture incubator with 5% CO2 at 37° C. When used for assay, the cells were gently rinsed twice with pre-warmed phosphate buffered saline (PBS) and detached in presence of PBS by tapping the flask or by using a cell scraper. The cells were spun to remove PBS and resuspended in fresh, pre-warmed test medium (DMEM supplemented with 10% FBS, 100p/mL penicillin, and 100 μg/mL streptomycin). A serial dilution of work solution of tested compound was made in DMSO with 1000× of final concentration, and 40 nL of compound DMSO solution was transferred into 384-well plates (Corning 3764) by Echo, and incubated with 10 μL of recombinant hTNFα (R&D biosystem, Cat #210-TA-020/CF) for 1 h at 37° C. The compound/hTNFα mixture well received 30 μL HEK-Blue™ TNFα cell suspension at 10000 cells/well, and then incubated at 37° C. with 5% CO2 for 24 h. The final concentration of hTNFα is […]. After incubation, 5 μL of induced cell supernatant was transferred to a new 384-well plate well (Coring 3764) to mix with 45 μL of QUANTI-Blue Solution. After 1 h incubation at 37° C., the plate was read using a spectrophotometer at 620 nm.
The percentage of inhibition was calculated by the following formula: % inhibition=(positive control−Sample)/(positive control−negative control)*100 • Positive control: OD620 reading of cells with hTNFα stimulation. • Negative control: OD620 reading of cells without hTNFα stimulation. • Sample: OD620 reading of cells with compound at specific concentration and hTNFα stimulation
The % inhibition was plotted against compound concentration in logarithmic scale and the IC50 was rendered using 4-parameter nonlinear regression (GraphPad Prism).

Where [1] appears, read: SEAP readout, read-out: IC50 Range.

What is called IC50 is the point on the concentration scale where inhibition reaches its midpoint. For orientation: Emax means the maximal effect, on the per cent scale that the assay sets.

TNFα, sequence (P01375 77-233 limits assumed): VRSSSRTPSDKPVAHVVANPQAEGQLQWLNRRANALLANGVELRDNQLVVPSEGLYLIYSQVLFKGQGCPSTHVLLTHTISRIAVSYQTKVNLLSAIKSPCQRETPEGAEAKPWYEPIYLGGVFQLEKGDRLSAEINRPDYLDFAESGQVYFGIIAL

Consider `CN1C(=O)c2cccc(OC(F)F)c2[C@H]2C[C@@H]1c1nn3cnc(-c4cnc([C@]5(N)C[C@@](C)(C#N)C5)c(F)c4)cc3c12` [Example 59], for which the Emax is 98%. Also, the IC50 under setting [1] is under 25 nM. For the same molecule, where the note is “read-out: TNFα reporter, IC50”, the IC50 amounted to 4.1 nM. Consider `C[C@]1(C#N)C[C@](N)(c2ncc(-c3ccn4nc5c(c4n3)[C@@H]3C[C@H]5NC(=O)c4cccc(OC(F)F)c43)cn2)C1` [Example 60], for which, under setting [1], the IC50 is under 25 nM. Consider `[2H]C([2H])([2H])N1C(=O)c2cccc(OC(F)F)c2[C@H]2C[C@@H]1c1nn3cnc(-c4cnc([C@]5(N)C[C@@](C)(C#N)C5)nc4)cc3c12` [Example 61], for which the IC50 under setting [1] was under 25 nM.

Take `CN1C(=O)c2cccc(OC(F)F)c2[C@H]2C[C@@H]1c1nn3ccc(-c4cnc([C@]5(O)CCOC5)nc4)cc3c12` [Example 63]: the IC50 under setting [1] was under 25 nM.

Consider `CN1C(=O)c2cccc(OC(F)F)c2[C@H]2C[C@@H]1c1nn3ccc(-c4cnc([C@@]5(O)CCOC5)nc4)cc3c12` [Example 64], for which the 50% inhibitory concentration (IC50) under setting [1] was under 25 nM. In the case of `CN1C(=O)c2cccc(OC(F)F)c2[C@H]2C[C@@H]1c1nn3ccc(-c4cnc(C5(O)CCOCC5)nc4)cc3c12` [Example 65], the Emax is 90%. Besides, the half-inhibitory concentration (IC50) under setting [1] is under 25 nM. Further, the IC50 (read-out: TNFα reporter, IC50) turned out to be 3.1 nM. In the case of `CN1C(=O)c2cccc(OC(F)F)c2[C@H]2C[C@@H]1c1nn3ccc(-c4cnc(C5(O)CC(F)(F)C5)nc4)cc3c12` [Example 66], the IC50 under setting [1] was under 25 nM. For `CN1C(=O)c2cccc(OC(F)F)c2[C@H]2C[C@@H]1c1nn3ccc(-c4cnc(OCP(C)(C)=O)nc4)cc3c12` [Example 67], under setting [1], the IC50 was under 25 nM. For the molecule `CN1C(=O)c2cccc(OC(F)F)c2[C@H]2C[C@@H]1c1nn3ccc(-c4ccc(S(=N)(=O)C5CC5)nc4)cc3c12` (stereo partly drawn) [Example 68], under setting [1], the concentration for half-maximal inhibition (IC50) was under 25 nM.

Consider `CN1C(=O)c2cccc(OC(F)F)c2[C@H]2C[C@@H]1c1nn3ccc(-c4ccnc(OCP(C)(C)=O)c4)cc3c12` [Example 70], for which the IC50 under setting [1] is under 25 nM. Same read-out and setting: in the case of `CN1C(=O)c2cccc(OC(F)F)c2[C@H]2C[C@@H]1c1nn3ccc(-c4cnc(C5(O)CCC5)nc4)cc3c12` [Example 71] it was under 25 nM; in that of `CN1C(=O)c2cccc(OC(F)F)c2[C@H]2C[C@@H]1c1nn3ccc(-c4cnc(C5(O)CCC(F)(F)CC5)nc4)cc3c12` [Example 72], under 25 nM; in that of `CN1C(=O)c2cccc(OC(F)F)c2[C@H]2C[C@@H]1c1nn3ccc(-c4cnc([C@@](C)(O)C(F)F)nc4)cc3c12` [Example 73], under 25 nM. Regarding `CN1C(=O)c2cccc(OC(F)F)c2[C@H]2C[C@@H]1c1nn3ccc(-c4cnc([C@](C)(O)C(F)F)nc4)cc3c12` [Example 74], under setting [1], the IC50 was under 25 nM. As for `CN1C(=O)c2cccc(OC(F)F)c2[C@H]2C[C@@H]1c1nn3ccc(-c4cnc([C@](C)(O)CC#N)nc4)cc3c12` [Example 75], the IC50 under setting [1] is under 25 nM. In the case of `CN1C(=O)c2cccc(OC(F)F)c2[C@H]2C[C@@H]1c1nn3ccc(-c4cnc([C@@](C)(O)CC#N)nc4)cc3c12` [Example 76], under setting [1], the IC50 is under 25 nM. Take `CN1C(=O)c2cccc(OC(F)F)c2[C@H]2C[C@@H]1c1nn3ccc(-c4cnc(C5(O)COC5)nc4)cc3c12` [Example 77]: the IC50 under setting [1] was under 25 nM. As to `CN1C(=O)c2cccc(OC(F)F)c2[C@H]2C[C@@H]1c1nn3ccc(-c4cnc([C@](O)(CC#N)C(F)F)nc4)cc3c12` [Example 78], the IC50 under setting [1] is under 25 nM.

On to `CN1C(=O)c2cccc(OC(F)F)c2[C@H]2C[C@@H]1c1nn3ccc(-c4cnc([C@@](O)(CC#N)C(F)F)nc4)cc3c12` [Example 79], for which, under setting [1], the IC50 is under 25 nM. In the case of `CN1C(=O)c2cccc(OC(F)F)c2[C@H]2C[C@@H]1c1nn3ccc(-c4cnc([C@@](C)(O)C5CC5)nc4)cc3c12` [Example 80], the IC50 under setting [1] is under 25 nM. Same read-out and setting: with `CN1C(=O)c2cccc(OC(F)F)c2[C@H]2C[C@@H]1c1nn3ccc(-c4cnc([C@](C)(O)C5CC5)nc4)cc3c12` [Example 81] the figure was under 25 nM; with `CN1C(=O)c2cccc(OC(F)F)c2[C@H]2C[C@@H]1c1nn3ccc(-c4cnc([C@]5(O)C[C@@H](O)C5)nc4)cc3c12` [Example 82], under 25 nM; with `CN1C(=O)c2cccc(OC(F)F)c2[C@H]2C[C@@H]1c1nn3ccc(-c4cnc([C@](C)(O)CO)nc4)cc3c12` [Example 83], under 25 nM. For `CN1C(=O)c2cccc(OC(F)F)c2[C@H]2C[C@@H]1c1nn3ccc(-c4cnc([C@@](C)(O)CO)nc4)cc3c12` [Example 84], under setting [1], the IC50 was under 25 nM. In the case of `CN1C(=O)c2cccc(OC(F)F)c2[C@H]2C[C@@H]1c1nn3ccc(-c4cnc([C@@](C)(O)C5COC5)nc4)cc3c12` [Example 85], the IC50 under setting [1] is under 25 nM. With `CN1C(=O)c2cccc(OC(F)F)c2[C@H]2C[C@@H]1c1nn3ccc(-c4cnc([C@](C)(O)C5COC5)nc4)cc3c12` [Example 86], under setting [1], the IC50 was under 25 nM. Regarding `CN1C(=O)c2cccc(OC(F)F)c2[C@H]2C[C@@H]1c1nn3ccc(-c4cnc(P(C)(C)=O)cn4)cc3c12` [Example 87], under setting [1], the IC50 is under 25 nM. In the case of `CN1C(=O)c2cccc(OC(F)F)c2[C@H]2C[C@@H]1c1nn3ccc(-c4cnc([C@]5(N)C[C@@](C)(C(=O)O)C5)nc4)cc3c12` [Example 88], the IC50 under setting [1] is under 25 nM. For the molecule `[2H]C([2H])([2H])N1C(=O)c2cccc(OC(F)F)c2[C@H]2C[C@@H]1c1nn3ccc(-c4cnc([C@@](C)(O)CC#N)nc4)cc3c12` [Example 89], under setting [1], the IC50 was under 25 nM. In the case of `[2H]C([2H])([2H])N1C(=O)c2cccc(OC(F)F)c2[C@H]2C[C@@H]1c1nn3ccc(-c4cnc([C@](C)(O)CC#N)nc4)cc3c12` [Example 90], under setting [1], the IC50 is under 25 nM. On to `CN1C(=O)c2cccc(OC(F)F)c2[C@H]2C[C@@H]1c1nn3ccc(-c4cnc([C@]5(O)C[C@](O)(C(F)F)C5)nc4)cc3c12` [Example 91], for which the IC50 under setting [1] was under 25 nM. For the molecule `CN1C(=O)c2cccc(OC(F)F)c2[C@H]2C[C@@H]1c1nn3ccc(-c4cnc(S(=N)(=O)C5CC5)nc4)cc3c12` (stereo partly drawn) [Example 92], under setting [1], the IC50 is 25 to 100 nM. As to `C[C@H](O)c1ncc(-c2ccn3nc4c(c3c2)[C@@H]2C[C@H]4N(C)C(=O)c3cccc(OC(F)F)c32)cn1` [Example 93], the IC50 under setting [1] was under 25 nM.

In the case of `C[C@@H](O)c1ncc(-c2ccn3nc4c(c3c2)[C@@H]2C[C@H]4N(C)C(=O)c3cccc(OC(F)F)c32)cn1` [Example 94], the IC50 under setting [1] is under 25 nM. Consider `CN1C(=O)c2cccc(OC(F)F)c2[C@H]2C[C@@H]1c1nn3ccc(-c4cnc(C(O)(CF)CF)nc4)cc3c12` [Example 95], for which the half-inhibitory concentration (IC50) under setting [1] was under 25 nM.

As to `[2H]C([2H])([2H])N1C(=O)c2cccc(OC(F)F)c2[C@H]2C[C@@H]1c1nn3ccc(-c4cnc([C@](O)(CC#N)C(F)F)nc4)cc3c12` [Example 96], the IC50 under setting [1] was under 25 nM. For `[2H]C([2H])([2H])N1C(=O)c2cccc(OC(F)F)c2[C@H]2C[C@@H]1c1nn3ccc(-c4cnc([C@@](O)(CC#N)C(F)F)nc4)cc3c12` [Example 97], under setting [1], the IC50 is under 25 nM. Still for that read-out and setting: with `CN1C(=O)c2cccc(OC(F)F)c2[C@H]2C[C@@H]1c1nn3cc(F)c(-c4cnc(C5(O)COC5)nc4)cc3c12` [Example 98] the figure was under 25 nM; with `CN1C(=O)c2cccc(OC(F)F)c2[C@H]2C[C@@H]1c1nn3ccc(-c4cnc(C5(N)CC(F)(F)C5)nc4)cc3c12` [Example 99], under 25 nM; with `CN1C(=O)c2cccc(OC(F)F)c2[C@H]2C[C@@H]1c1nn3ccc(-c4ccc(P(C)(C)=O)nn4)cc3c12` [Example 100], under 25 nM. The same measure, in the same setting: with `CN1C(=O)c2cccc(OC(F)F)c2[C@H]2C[C@@H]1c1nn3ccc(-c4cnc([C@]5(O)CC[C@@H](O)C5)nc4)cc3c12` [Example 101] the figure was under 25 nM; with `CN1C(=O)c2cccc(OC(F)F)c2[C@H]2C[C@@H]1c1nn3ccc(-c4cnc([C@@]5(O)CC[C@H](O)C5)nc4)cc3c12` [Example 102], under 25 nM; with `CN1C(=O)c2cccc(OC(F)F)c2[C@H]2C[C@@H]1c1nn3ccc(-c4cnc([C@H](N)C5CC5)nc4)cc3c12` [Example 103], under 25 nM. `CN1C(=O)c2cccc(OC(F)F)c2[C@H]2C[C@@H]1c1nn3ccc(-c4cnc([C@@H](N)C5CC5)nc4)cc3c12` [Example 104]: the half-inhibitory concentration (IC50) under setting [1] was under 25 nM.
